pIC50: −log10 of the molar value.
Legend:
[1] = Inhibition of protein phosphatase 2A (PP2A) was determined by standard phosphorylase inhibition assay; parameters: species or system Oryctolagus cuniculus
[2] = Inhibition of protein phosphatase 1 (PP1) was determined by standard phosphorylase inhibition assay; parameters: species or system Oryctolagus cuniculus

| SMILES | pIC50 [1] | pIC50 [2] |
| --- | --- | --- |
| CC[C@@H](C)CC[C@H](O)[C@H](C)C(=O)C[C@@H](O)[C@H](OC)[C@H](OC(=O)C[C@@H](O)C1=C(C)C(=O)OC1=O)C(C)C | 4.00 | 3.89 |
| CO[C@@H](CO)[C@H](OC(=O)C[C@@H](O)C1=C(C)C(=O)OC1=O)C(C)C | 5.48 | 5.32 |
| CO[C@H]([C@H](O)CC(=O)[C@@H](C)[C@@H](O)CC[C@@H](C)[C@@H]1O[C@]2(CC[C@@H](C)[C@H](CC[C@H](C)C(C)=O)O2)CC[C@@H]1C)[C@H](OC(=O)C[C@@H](O)C1=C(C)C(=O)OC1=O)C(C)C [TAUTOMYCIN] | 6.05 | 6.72 |

Source: ChEMBL document CHEMBL1136436, “A new model of the tautomycin-PP1 complex that is not analogous to the corresponding okadaic acid structure” (Bioorg Med Chem Lett, 2003)
